This is an account of results in the supplement of paper PMC10307832.

What all share (test): relative viability (nuclei count vs DMSO), 5 days (fraction); higher = more cells survive
Compound in the experiment “ALW-II-49-7 + Alpelisib”: Cc1ccc(C(=O)Nc2cccc(C(F)(F)F)c2)cc1Nc1cncc(C(N)=O)c1 [ALW-II-49-7] + Cc1nc(NC(=O)N2CCC[C@H]2C(N)=O)sc1-c1ccnc(C(C)(C)C(F)(F)F)c1 [Alpelisib] (partner 2 µM)
An outline of the steps:
(§1)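 Relative viability divides the nuclei count in treated wells by that in vehicle wells. Lung cancer cell lines were seeded in 1536-well plates, dosed by pin tool the next day, and fixed and stained after 5 days in one step with final 0.05% Triton X-100, 1% formaldehyde and 1 ug/ml Hoechst. Dosing was a single drug or a fixed anchor-drug dose plus five library-drug doses (not always all listed) in √10 steps, and values are medians of duplicate plates imaged at 4×.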

Compound in the experiment “XMD13-2 + Palbociclib”: C1CC1C(=O)NC2=NNC3=C2C=CC(=C3)C4=CC(=CC=C4)C(=O)NC5CC5 [XMD13-2] + CC(=O)c1c(C)c2cnc(Nc3ccc(N4CCNCC4)cn3)nc2n(C2CCCC2)c1=O [Palbociclib] (partner 0.5 µM)
An outline of the steps:
as §1

Compound in the experiment “ALW-II-49-7 + Lapatinib”: Cc1ccc(C(=O)Nc2cccc(C(F)(F)F)c2)cc1Nc1cncc(C(N)=O)c1 [ALW-II-49-7] + CS(=O)(=O)CCNCc1ccc(-c2ccc3ncnc(Nc4ccc(OCc5cccc(F)c5)c(Cl)c4)c3c2)o1 [Lapatinib] (partner 2 µM)
An outline of the steps:
as §1

Compound in the experiment “XMD13-2 + OSI-027”: C1CC1C(=O)NC2=NNC3=C2C=CC(=C3)C4=CC(=CC=C4)C(=O)NC5CC5 [XMD13-2] + COc1cccc2cc(-c3nc([C@H]4CC[C@H](C(=O)O)CC4)n4ncnc(N)c34)[nH]c12 [OSI-027] (partner 0.5 µM)
An outline of the steps: as §1

For UMC-11, the relative viability is 0.841 with ALW-II-49-7 + Alpelisib (first compound 0.08 µM); 1 with ALW-II-49-7 + Alpelisib (first compound 0.253 µM); 1.06 in the experiment with ALW-II-49-7 + Alpelisib (first compound 2.53 µM); 0.971 with ALW-II-49-7 + Alpelisib (first compound 8 µM); 0.356 with XMD13-2 + Palbociclib (first compound 0.05 µM); 0.313 with XMD13-2 + Palbociclib (first compound 0.1581 µM). Besides, the relative viability with XMD13-2 + Palbociclib (first compound 0.5 µM) stood at 0.349; with XMD13-2 + Palbociclib (first compound 1.581 µM) it was 0.33; with XMD13-2 + Palbociclib (first compound 5 µM), 0.334; with ALW-II-49-7 + Lapatinib (first compound 0.08 µM), 0.943; with ALW-II-49-7 + Lapatinib (first compound 0.253 µM), 1.08; in the experiment with ALW-II-49-7 + Lapatinib (first compound 0.8 µM) it was 0.998. The relative viability in the experiment with ALW-II-49-7 + Lapatinib (first compound 2.53 µM) was determined as 1.04; with ALW-II-49-7 + Lapatinib (first compound 8 µM), 0.806; with XMD13-2 + OSI-027 (first compound 0.05 µM), 0.438; with XMD13-2 + OSI-027 (first compound 0.1581 µM) it was 0.404; in the experiment with XMD13-2 + OSI-027 (first compound 0.5 µM), 0.474; with XMD13-2 + OSI-027 (first compound 1.581 µM), 0.453. In addition, the relative viability with XMD13-2 + OSI-027 (first compound 5 µM) was 0.351.
